Legend:
PKM2 = PKM2 (Mus musculus, UniProt P52480); conditions: in vivo; cited from earlier work
PKR WT = PKR WT (Homo sapiens, UniProt P30613); test: PKR enzyme assay (WT), LDH-coupled, absorbance 340 nm; type: biochemical; conditions: wild type PKR enzyme activation
Procedure: (§1) PKR (WT or mutant) enzyme stock solution was diluted to prepare a 1.25× Reaction Mix (without ADP). 1 μL of test compound was first added to the wells followed by 40 μL of 1.25× Reaction Mix (without ADP) and incubated at room temperature (25° C.) for 60 min. The reaction was initiated with 10 μL ADP, bringing the final Reaction Mix to 1x, and the reaction progress was measured as changes in absorbance at 340 nm wavelength at room temperature.
(§2) Test compound preparation: Test compounds were prepared at 50× final concentration in DMSO. 1 to 3 dilutions were made for 11 points (for example 50 μL of 5000 μM compound was added to 100 μL 100% DMSO to yield a 1667 μM, 50 μL of this added to 100 μL DMSO to yield 556 μM, and so forth). The compounds were added to the assay as a 1 to 50 dilution (1 μL in 50 μL) to yield a top concentration of 100 μM, decreasing 3-fold for 11 points.
(§3) Reaction Mix: PKR (1.25-1000 ng/well, 0.025-20 μg/ml depending on the PKR mutant), ADP (0.05-2.3 mM depending on the PKR mutant), PEP (0.031-2 mM depending on the PKR mutant), NADH (180 μM), LDH (0.005 U/μL, Sigma #L3888), 1 mM DTT, 0.03% BSA in 1× Reaction Buffer
(§4) Reaction Buffer: 100 mM KCl, 50 mM Tris pH 7.5, 5 mM MgCl2.

PKR K410E = PKR K410E (Homo sapiens, UniProt P30613, K410E); test: PKR Mutant Assay (K410E), LDH-coupled, absorbance 340 nm; type: biochemical; conditions: mutant PKR K410E enzyme activation
Chain of PKR K410E (P30613 whole entry K410E): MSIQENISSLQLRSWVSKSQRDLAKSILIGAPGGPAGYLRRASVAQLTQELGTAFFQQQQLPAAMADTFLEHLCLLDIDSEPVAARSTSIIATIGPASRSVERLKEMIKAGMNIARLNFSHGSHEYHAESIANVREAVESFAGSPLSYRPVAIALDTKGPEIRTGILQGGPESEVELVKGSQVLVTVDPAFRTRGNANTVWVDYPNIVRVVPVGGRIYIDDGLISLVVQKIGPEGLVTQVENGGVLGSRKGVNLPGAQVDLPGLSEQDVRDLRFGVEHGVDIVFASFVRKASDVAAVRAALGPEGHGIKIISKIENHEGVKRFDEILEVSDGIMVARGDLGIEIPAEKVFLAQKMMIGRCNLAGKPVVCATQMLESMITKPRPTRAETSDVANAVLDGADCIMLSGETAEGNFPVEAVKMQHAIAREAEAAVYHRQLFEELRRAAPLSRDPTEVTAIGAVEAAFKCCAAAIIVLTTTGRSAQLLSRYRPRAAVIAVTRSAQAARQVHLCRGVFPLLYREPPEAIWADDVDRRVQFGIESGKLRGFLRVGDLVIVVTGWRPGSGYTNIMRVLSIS
Procedure: as §1, §2, §3, §4

PK R510Q = PK R510Q (Homo sapiens, UniProt P30613, R510Q); test: PKR Mutant Assay (R510Q), LDH-coupled, absorbance 340 nm; type: biochemical; conditions: mutant PKR R510Q enzyme activation
Chain of PK R510Q (P30613 whole entry R510Q): as the sequence (P30613 whole entry K410E) above, with E410K, R510Q counted along it
Procedure: as §1, §2, §3, §4

PKM2 WT = PKM2 WT (Homo sapiens, UniProt P14618); test: PKM2 Assay, LDH-coupled, absorbance 340 nm; type: biochemical; conditions: wild type PKM2 enzyme activation
Chain of PKM2 WT (P14618 whole entry): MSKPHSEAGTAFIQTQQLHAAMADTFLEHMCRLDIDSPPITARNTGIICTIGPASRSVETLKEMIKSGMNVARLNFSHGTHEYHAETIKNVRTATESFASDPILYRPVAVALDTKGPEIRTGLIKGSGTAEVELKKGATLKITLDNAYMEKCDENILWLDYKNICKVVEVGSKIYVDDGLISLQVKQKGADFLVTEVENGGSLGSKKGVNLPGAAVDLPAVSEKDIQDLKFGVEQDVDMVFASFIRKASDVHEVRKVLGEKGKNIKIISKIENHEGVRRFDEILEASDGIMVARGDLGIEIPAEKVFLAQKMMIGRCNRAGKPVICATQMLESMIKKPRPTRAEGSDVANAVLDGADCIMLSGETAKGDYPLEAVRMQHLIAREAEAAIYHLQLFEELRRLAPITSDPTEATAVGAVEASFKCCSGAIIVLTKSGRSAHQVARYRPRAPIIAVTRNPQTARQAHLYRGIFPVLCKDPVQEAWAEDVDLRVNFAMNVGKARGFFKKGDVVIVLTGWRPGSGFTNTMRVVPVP
Procedure: as §1, with “PKM2” for “PKR (WT or mutant)”, “ADP (0.4 mM final concentration),” for “ADP,”
as §2
Reaction Mix: PKM2 (5 ng/well, 0.1 μg/ml), ADP (0.4 mM), PEP (0.11 mM), NADH (180 μM), LDH (0.005 U/μL, Sigma #L3888), 1 mM DTT, 0.03% BSA in 1×
as §4

RBCs = test: Cell Based ATP Assay in purified red blood cells (Cell-Titer-Glo); design: species or system human; conditions: wild type PKR, ATP levels in RBCs, overnight at 37° C.
Procedure: Fresh blood drawn from healthy volunteers into K2EDTA tubes was collected. Whole blood was pelleted by spinning at 500 g for 10 minutes. The transfusion bag port was cut off Purecell leukocyte reduction neofilter (Fisher NC0267633) one (1) inch above filter. A 10 ml syringe barrel was attached to the remaining cut tubing attached to the neofilter. The plasma layer was removed from the pellet of the whole blood and the pellet was resuspended in 2× volume of phosphate buffered saline (PBS). 9 ml re-suspended blood cell pellet was transferred to a 10 ml syringe that was attached to the neofilter. The whole blood was allowed to gravity flow through filter until all fluid ran through upper tubing into a filter disc. The plunger was added to the syringe. The filter was inverted and air was plunged through the syringe filter system. A new 5 ml syringe was used to remove filtered RBCs from the bag by the syringe port. Purified RBCs were transferred to a 5 ml snap cap tube that had been incubated on ice. The 5 ml snap cap tube was spun at 500 g for 10 minutes at 15 C. Supernatant was aspirated and resuspended in AGAM (1×PBS, 1% glucose, 170 mg/L adenine, 5.25 g/L mannitol) at a density of 4×10^9 cells/mL.
For cell based ATP assays, the compound as described herein was prepared in 100% DMSO as a 10 mM stock. Serial dilutions (1:4) were performed in 96-well V-bottom storage plate and then added 1:100 to 96-well V-bottom plates containing AGAM. 10 μL/well of compound diluted in AGAM was added to black clear bottom assay plates. RBCs were diluted in AGAM media to a density of 1×10^7 cells/mL before added 90 μL/well to black clear bottom assay plates (final compound concentration at 0.1% DMSO concentration). Assay plates were sealed using aluminum foil seals and incubated overnight at 37° C. in a humidified chamber. ATP levels were read out using Cell-Titer-Glo (Promega).

Chain of PKR WT (P30613 whole entry): as the sequence (P30613 whole entry K410E) above, with E410K counted along it
Chain of PKM2 (P52480 whole entry): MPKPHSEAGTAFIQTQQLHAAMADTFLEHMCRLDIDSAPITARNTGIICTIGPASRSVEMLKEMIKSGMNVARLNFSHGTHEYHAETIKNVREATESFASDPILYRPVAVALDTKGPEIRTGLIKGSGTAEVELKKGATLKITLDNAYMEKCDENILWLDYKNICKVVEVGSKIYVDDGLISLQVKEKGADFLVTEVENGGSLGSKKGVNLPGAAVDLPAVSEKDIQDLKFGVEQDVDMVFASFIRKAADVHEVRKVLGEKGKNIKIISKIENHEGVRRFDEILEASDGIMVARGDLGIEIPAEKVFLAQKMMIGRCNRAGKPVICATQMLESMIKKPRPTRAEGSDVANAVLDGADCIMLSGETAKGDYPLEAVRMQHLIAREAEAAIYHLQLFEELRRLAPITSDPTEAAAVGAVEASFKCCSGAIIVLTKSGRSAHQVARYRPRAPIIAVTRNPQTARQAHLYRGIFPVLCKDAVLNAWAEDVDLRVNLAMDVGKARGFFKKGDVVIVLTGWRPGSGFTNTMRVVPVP

SMILES | LPS and IL-1β production (PKM2) | production of IL-10 (PKM2) | AC50 (PKR WT) | AC50 (PKR K410E) | AC50 (PK R510Q) | AC50 (PKM2 WT) | PKR WT AC50 (PKR WT) | PKR K410E AC50 (PKR K410E) | PK R510Q AC50 (PK R510Q) | Cell based ATP assay AC50 (RBCs) | AC50 (RBCs; Homo sapiens, Erythrocyte)
Cn1c2cc([S+](C)[O-])sc2c2cnn(Cc3cccc(N)c3)c(=O)c21 (centres unmarked) [TEPP-46] | inhibited | boosting | – | – | – | – | – | – | – | – | –
COc1cccc(Cn2ncc3c4cc(C(F)(F)F)ccc4n(C)c3c2=O)c1 [Cpd 63] | – | – | > 800 nM | > 800 nM | > 800 nM | > 800 nM | – | – | – | – | –
C=Cc1ccc2c(c1)c1cnn(Cc3cccc(OC)c3)c(=O)c1n2C [Cpd 39] | – | – | > 800 nM | > 800 nM | > 800 nM | > 800 nM | – | – | – | – | –
COc1cccc(Cn2ncc3c4ccc(Cc5ccccc5)cc4n(C)c3c2=O)c1 [Cpd 60] | – | – | > 800 nM | > 800 nM | 301 to 800 nM | 301 to 800 nM | – | – | – | – | –
COc1cccc(Cn2ncc3c4c(Cc5ccccc5)cccc4n(C)c3c2=O)c1 [Cpd 61] | – | – | – | – | – | > 800 nM | No Fit | No Fit | No Fit | – | –
Cc1nc2c3cnn(Cc4ccccc4)c(=O)c3n(C)c2s1 [Cpd 26] | – | – | > 800 nM | > 800 nM | > 800 nM | > 800 nM | – | – | – | No Fit | –
COc1cccc(Cc2ccc3c4sc(C)cc4n(C)c3c2)c1 [Cpd 2] | – | – | – | – | – | > 800 nM | No Fit | No Fit | No Fit | – | –
COc1cccc(Cn2ncc3c4cc(CO)ccc4n(C)c3c2=O)c1 [Cpd 44] | – | – | > 800 nM | > 800 nM | > 800 nM | 301 to 800 nM | – | – | – | – | –
Cn1c2ccc(S(C)(=O)=O)cc2c2cnn(Cc3cccc(C(N)=O)c3)c(=O)c21 [Cpd 52] | – | – | > 800 nM | > 800 nM | > 800 nM | 301 to 800 nM | – | – | – | No Fit | –
COc1cccc(Cn2ncc3c4cccc(Cc5ccccc5)c4n(C)c3c2=O)c1 [Cpd 59] | – | – | > 800 nM | > 800 nM | – | > 800 nM | – | – | No Fit | – | –
COc1cccc(Cn2ncc3c4n[nH]cc4n(C)c3c2=O)c1 [Cpd 29] | – | – | > 800 nM | > 800 nM | > 800 nM | > 800 nM | – | – | – | – | –
COc1cccc(Cn2ncc3c4oc(C)nc4n(C)c3c2=O)c1 [Cpd 3] | – | – | > 800 nM | > 800 nM | > 800 nM | 301 to 800 nM | – | – | – | – | –
COc1cccc(Cn2ncn3c(c(C)c4nc(C)sc43)c2=O)c1 [Cpd 25] | – | – | > 800 nM | > 800 nM | > 800 nM | > 800 nM | – | – | – | No Fit | –
Cn1cc(Cc2ccc3c4cnn(Cc5cccc(C(N)=O)c5)c(=O)c4n(C)c3c2)cn1 [Cpd 62] | – | – | > 800 nM | > 800 nM | > 800 nM | 301 to 800 nM | – | – | – | No Fit | –
COc1cccc(Cn2ncc3c4cc(O)ccc4n(C)c3c2=O)c1 [Cpd 48] | – | – | > 800 nM | > 800 nM | > 800 nM | 301 to 800 nM | – | – | – | – | –
Cn1c2ccc([S+](C)[O-])cc2c2cnn(Cc3cccc(C(N)=O)c3)c(=O)c21 (centres unmarked) [Cpd 51] | – | – | > 800 nM | > 800 nM | > 800 nM | > 800 nM | – | – | – | No Fit | –
Cn1ccc(Cn2ncc3c4cc(Cc5cscn5)ccc4n(C)c3c2=O)n1 [Cpd 31] | – | – | > 800 nM | > 800 nM | > 800 nM | > 800 nM | – | – | – | – | > 1000 nM

SMILES | LPS and IL-1β production (PKM2) | production of IL-10 (PKM2) | AC50 (PKR WT) | AC50 (PKR K410E) | AC50 (PK R510Q) | AC50 (PKM2 WT) | PKR WT AC50 (PKR WT) | PKR K410E AC50 (PKR K410E) | PK R510Q AC50 (PK R510Q) | Cell based ATP assay AC50 (RBCs) | AC50 (RBCs; Homo sapiens, Erythrocyte)
COc1cccc(CN2Cc3c(n(C)c4cc(C)sc34)C2=O)c1 [Cpd 1] | – | – | > 800 nM | > 800 nM | > 800 nM | > 800 nM | – | – | – | – | –
COc1cccc(Cn2ncc3c4c(C)cccc4n(C)c3c2=O)c1 [Cpd 46] | – | – | – | > 800 nM | – | > 800 nM | No Fit | – | No Fit | – | –
COc1cccc(Cn2ncc3c4nn(C)cc4n(C)c3c2=O)c1 [Cpd 30] | – | – | > 800 nM | > 800 nM | > 800 nM | > 800 nM | – | – | – | – | –
COc1cccc(Cn2ncc3c4ncccc4n(C)c3c2=O)c1 [Cpd 65] | – | – | > 800 nM | > 800 nM | > 800 nM | > 800 nM | – | – | – | – | –
COc1cccc(Cn2ncc3c4cc(C#N)ccc4n(C)c3c2=O)c1 [Cpd 45] | – | – | > 800 nM | > 800 nM | > 800 nM | < 300 nM | – | – | – | – | –
CNC(=O)c1ccc2c3cnn(Cc4cccc(OC)c4)c(=O)c3n(C)c2c1 [Cpd 41] | – | – | > 800 nM | – | – | < 300 nM | – | No Fit | No Fit | – | –
COc1cccc(Cn2ncc3c4cc(Br)ccc4n(C)c3c2=O)c1 [Cpd 36] | – | – | > 800 nM | > 800 nM | > 800 nM | 301 to 800 nM | – | – | – | – | –
CCc1ccc2c3cnn(Cc4cccc(OC)c4)c(=O)c3n(C)c2c1 [Cpd 43] | – | – | > 800 nM | > 800 nM | > 800 nM | > 800 nM | – | – | – | – | –
COc1cccc(Cn2ncc3c4c(Br)cccc4n(C)c3c2=O)c1 [Cpd 32] | – | – | > 800 nM | > 800 nM | > 800 nM | > 800 nM | – | – | – | – | –
COc1cccc(Cn2ncc3c4cc(Cc5ccccc5)ccc4n(C)c3c2=O)c1 [Cpd 34] | – | – | > 800 nM | > 800 nM | > 800 nM | > 800 nM | – | – | – | – | –
C=Cc1ccc2c3cnn(Cc4cccc(OC)c4)c(=O)c3n(C)c2c1 [Cpd 42] | – | – | > 800 nM | > 800 nM | > 800 nM | > 800 nM | – | – | – | – | –
COc1cccc(Cn2ncc3c4cccnc4n(C)c3c2=O)c1 [Cpd 66] | – | – | > 800 nM | > 800 nM | 301 to 800 nM | 301 to 800 nM | – | – | – | – | –
CNC(=O)c1ccc2c(c1)c1cnn(Cc3cccc(OC)c3)c(=O)c1n2C [Cpd 38] | – | – | – | – | – | > 800 nM | No Fit | No Fit | No Fit | – | –
COC(=O)c1ccc2c(c1)c1cnn(Cc3cccc(OC)c3)c(=O)c1n2C [Cpd 37] | – | – | > 800 nM | > 800 nM | > 800 nM | > 800 nM | – | – | – | – | –
Cn1cc(Cc2ccc3c(c2)c2cnn(Cc4cccc(C(N)=O)c4)c(=O)c2n3C)cn1 [Cpd 35] | – | – | – | – | – | 301 to 800 nM | No Fit | No Fit | No Fit | No Fit | –
COc1cccc(Cn2ncc3c4sc(Cc5ccccc5)cc4n(C)c3c2=O)c1 [Cpd 4] | – | – | < 300 nM | < 300 nM | < 300 nM | < 300 nM | – | – | – | – | –

— US20220127267A1, “THIENO[3,2-B] PYRROLE[3,2-D]PYRIDAZINONE DERIVATIVES AND THEIR USE AS PKM2 DERIVATIVES FOR THE TREATMENT OF CANCER, OBESITY AND DIABETES RELATED DISORDERS” (Agios Pharmaceuticals, Inc., priority 2019, published 2022)
